Laboratory results published in patent US20260216169A1, “NAPHTHYLAMIDE COMPOUND, AND PREPARATION METHOD THEREFOR AND USE THEREOF” (SHENZHEN CHIPSCREEN BIOSCIENCES CO., LTD., priority 2022, published 2026).

Legend:
Aurora B kinase = Aurora B kinase (Homo sapiens, UniProt Q96GD4); test: HTRF KinEASE test of inhibitory activity against Aurora B kinase; assay type: biochemical; design: purchased Carna 05-102; details: Carna kinase, substrate S2
Experimental: (§1) Preparation of working solutions of compounds in DMSO with gradient concentrations: 0.2 mM solutions of the compounds in DMSO were prepared and serially diluted with DMSO to form working solutions with 10 gradient concentrations (corresponding to final compound concentrations of 1000 nM, 300 nM, 100 nM, 30 nM, 10 nM, 3 nM, 1 nM, 0.3 nM, 0.1 nM, and 0.03 nM in the reaction system).
(§2) Tests of inhibitory activity against Aurora B kinase and VEGFR2: The half maximal inhibitory concentrations (IC50) of the compounds against Aurora B kinase and VEGFR2 were determined using HTRF KinEASE-TK kit (Cisbio, Cat #62TKOPEC) and HTRF KinEASE-STK kit (Cisbio, Cat #61ST2BLE). A 2× kinase & Metal solution (Aurora B/Cat #05-102 and VEGFR2/Cat #08-191, both purchased from Carna) and a 2× Substrate & ATP solution (for Aurora B and VEGFR2, substrates S2 and TK were used, respectively) were prepared according to the kit instructions. The working solutions of the test compounds with gradient concentrations were added to a 384-well plate at 25 nL/well, and 2.5 μL of the 2× kinase & Metal solution was added to each well. The plate was sealed with a plate-sealing film, well shaken, centrifuged, and then incubated at 25° C. for 10 min. Then, the 2× Substrate & ATP solution was added at 2.5 μL/well, and the plate was incubated again at 25° C. for 30 min. Finally, a 2× XL665 & Antibody kinase detection reaction solution was added at 5 μL/well. After the plate was incubated at 25° C. for 60 min, the fluorescence signals at wavelengths of 665 nm and 620 nm in each well were measured by a microplate reader.
(§3) The 665 nm/620 nm fluorescence signal ratio (X) of each well was calculated. With the compound-free well as a negative control (Y) and the enzyme-free well as a positive control (Z), the inhibition rate of the compound in each test well against the corresponding kinase was calculated using the formula: inhibition (%)=100%−(X−Z)/(Y−Z)×100%, and the half maximal inhibitory concentration (IC50) of each compound against the corresponding kinase was calculated by GraphPad 7.0 software.

VEGFR2 = target: T1, VEGFR2 (Homo sapiens, UniProt P35968); test: HTRF KinEASE test against VEGFR2, reported as relative selectivity IC50-VEGFR2/IC50-Aurora B; assay type: biochemical; details: ratio of IC50 against VEGFR2 to IC50 against Aurora B
T1 construct: purchased Carna 08-191
T1 sequence (P35968 790-1356 limits assumed): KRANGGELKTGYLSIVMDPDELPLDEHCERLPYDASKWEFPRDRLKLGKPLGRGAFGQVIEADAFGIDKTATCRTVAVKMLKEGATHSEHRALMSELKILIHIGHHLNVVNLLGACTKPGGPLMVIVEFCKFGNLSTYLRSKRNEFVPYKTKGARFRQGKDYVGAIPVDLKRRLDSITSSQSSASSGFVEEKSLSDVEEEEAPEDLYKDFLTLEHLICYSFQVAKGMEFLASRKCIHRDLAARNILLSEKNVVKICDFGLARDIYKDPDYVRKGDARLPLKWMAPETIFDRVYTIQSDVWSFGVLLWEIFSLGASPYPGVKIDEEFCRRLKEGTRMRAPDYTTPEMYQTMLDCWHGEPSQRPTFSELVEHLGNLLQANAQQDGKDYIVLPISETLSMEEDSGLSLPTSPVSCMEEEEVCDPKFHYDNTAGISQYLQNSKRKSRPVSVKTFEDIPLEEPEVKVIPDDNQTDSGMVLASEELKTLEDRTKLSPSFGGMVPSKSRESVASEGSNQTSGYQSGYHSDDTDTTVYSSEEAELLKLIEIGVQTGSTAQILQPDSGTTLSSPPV
Experimental: as §1, §2, §3

[1] = Brain permeation assay in mice; assay type: in vivo; details: B/C, mouse, oral; female mice, 5 mg/kg intragastric, 4 h after administration; read-out: Brain permeation (ratio of compound concentration in brain tissue to concentration in plasma)
Experimental: The objective of this example was to test whether the compounds of the present disclosure are able to cross the blood-brain barrier (BBB). The compounds of the present disclosure were dissolved in a vehicle containing 5% dimethyl sulfoxide, 60% 1,3-propanediol, and 35% purified water, and intragastrically administered to B/C female mice aged 6 weeks (purchased from Guangdong Medical Laboratory Animal Center) at 5 mg/kg. The animals were sacrificed 4 h after the administration, and blood and brain tissue samples were collected. The blood samples were anticoagulated with K2-EDTA and centrifuged at 5000 rpm for 5 min to separate plasma. The brain tissue samples were accurately weighed and homogenized with a certain amount of phosphate-buffered saline (PBS) solution, and the biological samples were stored at −80° C. before analysis. After sample extraction, the compound concentration was determined using a liquid chromatography-tandem mass spectrometry (LC-MS/MS) system. Brain permeation was defined as the ratio of the compound concentration in brain tissue to the concentration in plasma.

Molt-4 cells = test: Effects on tumor cell cycle, PI staining and flow cytometry; assay type: cell-based, human; details: 48 h
Description: When the activity of Aurora B kinase is inhibited in tumor cells, the arrangement and separation of chromosomes are blocked, leading to cytokinesis failure and the formation of tetraploid or polyploid cells. Moreover, severe genomic instability and mitotic catastrophe result in apoptosis. The intracellular DNA content can be mapped with propidium iodide (PI), a fluorescent dye that specifically binds to nucleic acid, so that cell states can be distinguished into sub-G0/G1 (apoptosis), G0/G1, S, G2/M (tetraploid), and polyploid states.
Experimental process: Molt-4 cells (human acute lymphoblastic leukemia cells, CRL-1582) were purchased from the American Type Culture Collection (ATCC). Molt-4 cells in the logarithmic growth phase were collected from suspension culture and counted. The cells were seeded into a 6-well plate at 10^6 cells/well and cultured overnight under normal conditions. The test compounds were prepared as 1 mM and 3 mM solutions in DMSO, and the solutions in DMSO were diluted 50-fold with culture medium. Finally, the above solutions were added to the culture system in a volume ratio of 1:19, achieving a final compound concentration of 1 μM or 3 μM in each well. After 48 h of incubation, the cells were collected by centrifugation. Each cell sample was resuspended in 300 μL of PBS, and the suspension was added dropwise to 700 μL of pre-cooled absolute ethanol. Then the mixture was gently inverted several times for thorough mixing to complete cell collection and fixation. The samples were left to stand at 4° C. for more than 12 h and then analyzed by flow cytometry.
A working dye solution was prepared by homogeneously mixing PBS, a 10 mg/mL PI stock solution, and a 10 mg/mL RNase A solution in a ratio of 1000:5:2. The fixed cell samples were centrifuged at 4° C. and 1000 rpm for 10 min. The supernatants were completely removed using a pipette, and the cells were washed twice with PBS and resuspended in the above working dye solution at […]. After incubation in a dark place at 37° C. for 30 min, the cells were filtered using a 200-mesh stainless steel strainer, and the filtrate was loaded onto a flow cytometer for cell cycle analysis (10,000 cells counted per sample).
Histograms showing DNA contents were obtained from the flow cytometry analysis, and the cell cycle distribution in each sample was analyzed using the flow cytometry data analysis software FlowJo. The mean (X) and standard deviation (SD) were calculated, and data were represented as X±SD. The apoptosis and the proportions of tetraploid and polyploid cells after Molt-4 cells were treated with different doses of the test compounds are shown in Table 3 below.

Chain of Aurora B kinase (Q96GD4 whole entry): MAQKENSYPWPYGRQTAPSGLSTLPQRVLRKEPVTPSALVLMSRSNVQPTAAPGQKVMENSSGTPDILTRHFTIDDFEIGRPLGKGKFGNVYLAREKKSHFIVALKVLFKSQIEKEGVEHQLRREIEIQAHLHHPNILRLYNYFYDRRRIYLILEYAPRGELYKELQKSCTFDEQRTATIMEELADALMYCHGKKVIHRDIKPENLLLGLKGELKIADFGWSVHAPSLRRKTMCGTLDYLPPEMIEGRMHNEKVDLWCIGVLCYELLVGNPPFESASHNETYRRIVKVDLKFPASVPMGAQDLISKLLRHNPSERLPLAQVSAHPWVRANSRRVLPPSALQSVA
Chain of Aurora B kinase (Q9NQS7 803-916 partner limits assumed): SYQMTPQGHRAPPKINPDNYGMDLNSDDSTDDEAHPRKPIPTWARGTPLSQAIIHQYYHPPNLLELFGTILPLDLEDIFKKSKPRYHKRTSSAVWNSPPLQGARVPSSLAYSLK

| SMILES | IC50 (Aurora B kinase) [nM] | Selectivity for Aurora B IC50-VEGFR2/IC50-Aurora B (VEGFR2) | further results |
| --- | --- | --- | --- |
| CCCCOc1ccc2c(Oc3ccc4c(C(=O)Nc5ccccc5N)cccc4c3)ccnc2c1 [Compound I-13] | 127 | 0.27 | – |
| Nc1c(NC(=O)c2cccc3cc(Oc4ccnc5cc(OCCF)ccc45)ccc23)ccc(F)c1F [Compound I-32] | 2.01 | 8.07 | – |
| O=C(NC1CCCCC1)c1cccc2cc(Oc3ccnc4cc(OCCF)ccc34)ccc12 [Compound I-35] | 5.26 | 9.55 | – |
| COCCOc1ccc2c(Oc3ccc4c(C(=O)NC5CC(F)C5)cccc4c3)ccnc2c1 (stereo not drawn) [Compound I-27] | 0.896 | 10.23 | – |
| COCCOc1ccc2c(Oc3ccc4c(C(=O)NC5CC6(CCC6)C5)cccc4c3)ccnc2c1 [Compound I-25] | 1.55 | 38.05 | – |
| O=C(NC1CC(F)(F)C1)c1cccc2cc(Oc3ccnc4cc(OCCOC(F)F)ccc34)ccc12 [Compound I-21] | 2.12 | 12.27 | – |
| CC(C)Oc1ccc2c(Oc3ccc4c(C(=O)Nc5ccccc5N)cccc4c3)ccnc2c1 [Compound I-7] | 417 | 0.17 | – |
| CCCCOc1ccc2c(Oc3ccc4c(C(=O)Nc5ccc(C)cc5N)cccc4c3)ccnc2c1 [Compound I-14] | 53.1 | 18.84 | – |
| COCCOc1ccc2c(Oc3ccc4c(C(=O)NC5CC6(COC6)C5)cccc4c3)ccnc2c1 [Compound I-24] | 1.7 | 109.61 | – |
| O=C(NC1CC(F)(F)C1)c1cccc2cc(Oc3ccnc4cc(OCCF)ccc34)ccc12 [Compound I-33] | 2.65 | 376.79 | – |
| COc1ccc2c(Oc3ccc4c(C(=O)Nc5cc(F)c(F)c(F)c5N)cccc4c3)ccnc2c1 [Compound I-10] | 3.52 | 13.34 | – |
| CCOc1cc(F)c2c(Oc3ccc4c(C(=O)Nc5ccccc5N)cccc4c3)ccnc2c1 [Compound I-17] | 4.01 | 8.16 | Kp at 4 h [1]: 0.6 |
| COc1cc(F)c2c(Oc3ccc4c(C(=O)Nc5ccc(F)c(F)c5N)cccc4c3)ccnc2c1 [Compound I-37] | 2.63 | 14.19 | Kp at 4 h [1]: 0.6; Apoptosis (%) DNA < 2N (Molt-4 cells; dose 1 μM): 22.55 ± 0.21%; Polyploid (%) DNA > 4N (Molt-4 cells; dose 1 μM): 55.25 ± 5.02%; Tetraploid (%) DNA = 4N (Molt-4 cells; dose 1 μM): 4.68 ± 3.46%; Total (apoptosis + tetraploid + polyploid) (Molt-4 cells; dose 1 μM): 82.48; Apoptosis (%) DNA < 2N (Molt-4 cells; dose 3 μM): 23.75 ± 2.33%; Polyploid (%) DNA > 4N (Molt-4 cells; dose 3 μM): 53.75 ± 4.17%; Tetraploid (%) DNA = 4N (Molt-4 cells; dose 3 μM): 5.75 ± 3.15%; Total (apoptosis + tetraploid + polyploid) (Molt-4 cells; dose 3 μM): 83.25 |
| CN(C)CCOc1ccc2c(Oc3ccc4c(C(=O)NC5CC(F)(F)C5)cccc4c3)ccnc2c1 [Compound I-42] | 3.86 | 13.9 | – |
| CCOc1cc(F)c2c(Oc3ccc4c(C(=O)Nc5cccc(F)c5N)cccc4c3)ccnc2c1 [Compound I-18] | 6.89 | 9.75 | – |
| CCOc1ccc2c(Oc3ccc4c(C(=O)Nc5ccc(F)c(F)c5N)cccc4c3)ccnc2c1 [Compound I-6] | 3.18 | 18.64 | – |
| CCOc1cc(F)c2c(Oc3ccc4c(C(=O)Nc5ccc(F)c(F)c5N)cccc4c3)ccnc2c1 [Compound I-19] | 5.62 | 9.08 | – |
| Nc1c(F)cccc1NC(=O)c1cccc2cc(Oc3ccnc4cc(OCCOC(F)F)cc(F)c34)ccc12 [Compound I-28] | 4.12 | 9.68 | – |
| CCOc1cc(F)c2c(Oc3ccc4c(C(=O)Nc5cc(F)ccc5N)cccc4c3)ccnc2c1 [Compound I-20] | – | – | Kp at 4 h [1]: 0.67 |
| CCOc1ccc2c(Oc3ccc4c(C(=O)Nc5cc(F)c(F)c(F)c5N)cccc4c3)ccnc2c1 [Compound I-44] | 6.71 | 12.14 | – |
| O=C(NC1CC(F)(F)C1)c1cccc2cc(Oc3ccnc4cc(OCC(F)F)ccc34)ccc12 [Compound I-41] | 2.22 | 127.51 | – |
| CCCOc1ccc2c(Oc3ccc4c(C(=O)Nc5ccccc5N)cccc4c3)ccnc2c1 [Compound I-11] | 33.9 | 0.78 | – |
| CCOc1ccc2c(Oc3ccc4c(C(=O)Nc5ccccc5N)cccc4c3)ccnc2c1 [Compound I-1] | – | – | Kp at 4 h [1]: 0.73 |
| COCCOc1ccc2c(Oc3ccc4c(C(=O)NC5CC(F)(F)C5)cccc4c3)ccnc2c1 [Compound I-23] | 1.24 | 9.49 | – |
| COc1cc(F)c2c(Oc3ccc4c(C(=O)Nc5ccc(F)c(Cl)c5N)cccc4c3)ccnc2c1 [Compound I-36] | 2.92 | 7.75 | – |
| CCOc1ccc2c(Oc3ccc4c(C(=O)Nc5ccc(F)cc5N)cccc4c3)ccnc2c1 [Compound I-5] | 2.83 | 49.6 | – |
| CCCOc1ccc2c(Oc3ccc4c(C(=O)Nc5ccc(F)cc5N)cccc4c3)ccnc2c1 [Compound I-12] | 19 | 5.12 | – |
| CCOc1ccc2c(Oc3ccc4c(C(=O)Nc5cc(F)ccc5N)cccc4c3)ccnc2c1 [Compound I-15] | – | – | Kp at 4 h [1]: 0.76 |
